Reference: patent publication US12123059B2, “Predicting cardiotoxicity risk in cancer patients receiving anthracyclines chemotherapy” (Fundación Para La Investigación Del Hospital Universitario …, priority 2018, dated 2024)

Tested on: human cardiomyocytes
Test: Modulation of miRNA copy number by Doxorubicin in human cardiomyocytes in culture
Format: cell-based
Details: Doxorubicin 1 μM for 24 h, FIG. 4
Protocol: FIG. 4. (A, B) Graphics showing modulation of miRNAs by Doxorubicin in human cardiomyocytes and patients' serum. Left panels show copy number of indicated miRNAs in cardiomyocytes in culture before or after the addition of Doxorubicin (1 μM) for 24 h. Right panels show copy numbers of indicated miRNAs as detected by RNAseq in serum from control patients and cases and expressed as mean±SEM (N=10 in each case) before or after completion of anthracycline chemotherapy. Only miRNAs showing a similar tendency in cells and patients' serum are illustrated. *P<0.05.
The specific signature of miRNAs has been detected in serum. Since the pathways related to miRNAs are linked to cardiomyocytes, the copy number of the miRNAs of interest in human cardiomyocytes was also measured. As observed in FIG. 4, the miRNAs previously detected in serum were also present in human cardiomyocytes (left panels) and their expression level is altered when cells are damaged by Doxorubicin. […] As shown in the right panel of FIG. 4, the copy number of miRNA-22-3p increases both in cells and serum of patients after anthracycline treatment whereas miRNA-30b, miRNA-148a, miRNA-150-5p, and miRNA-4732-3p decrease their expression levels. […] Indeed, this set of miRNAs regulates genes involved in the aforementioned biological pathways (FIG. 5)

- copy number of miRNA-22-3p: increases
- expression level of miRNA-30b: decrease
- expression level of miRNA-148a: decrease
- expression level of miRNA-150-5p: decrease
- expression level of miRNA-4732-3p: decrease
SMILES: COc1cccc2c1C(=O)c1c(O)c3c(c(O)c1C2=O)C[C@@](O)(C(=O)CO)C[C@@H]3O[C@H]1C[C@H](N)[C@H](O)[C@H](C)O1 [Doxorubicin]
